Biological target: T1, Recombinant human His-tagged Trim24-PHD-bromodomain (Homo sapiens, UniProt O15164)
T1 construct: Recombinant human His-tagged Trim24-PHD-bromodomain (produced in-house); made in house
T1 sequence (O15164 824-1006 limits assumed): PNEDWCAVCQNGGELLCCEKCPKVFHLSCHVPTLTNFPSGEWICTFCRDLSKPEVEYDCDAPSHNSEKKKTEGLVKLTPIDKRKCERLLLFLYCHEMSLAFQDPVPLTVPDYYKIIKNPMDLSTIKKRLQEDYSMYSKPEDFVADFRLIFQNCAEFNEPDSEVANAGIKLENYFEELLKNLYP
Assay: Trim24 AlphaScreen Assay
Format: binding
Conditions: 5 nM Trim24 protein, 15 nM biotinylated H3K23ac (1-33aa) peptide
Description: Recombinant human His-tagged Trim24-PHD-bromodomain (produced in-house), biotinylated H3K23ac (1-33aa) peptide (AnaSpec, Inc.), and test compound were added to a 384-well OptiPlate (Perkin Elmer) and incubated at room temperature for one hour. The assay buffer consisted of 50 mM Hepes, pH 7.5, 100 mM NaCl, and 0.12 mM Triton X-100.
Streptavidin donor beads and nickel chelate acceptor beads, both from a Perkin Elmer AlphaScreen Histidine Detection Kit, were then added to the Optiplate to a final concentration of 10 ug/mL each. Following a 2 hour incubation at room temperature, the microplate was read on an Envision Plate Reader (Perkin Elmer). Percent of control (POC) values were calculated from the following formula:
POC=[sample signal-average background signal]/[average maximum signal−average background signal]*100
The average maximum signal was obtained from wells containing all assay components except test compound. The average background signal pertained to wells with all assay components except Trim24 and test compound. IC50 values were calculated using a four-parameter logistic curve fit.

SMILES | IC50 [nM]
Cc1ncc(S(=O)(=O)Nc2cc3c(cc2Oc2cccc(OCc4ccccc4)c2)n(C)c(=O)n3C)s1 [Example 47, N-(6-(3-(benzyloxy)phenoxy)-1,3-dimethyl-2-oxo-2,3-dihydro-1H-benzo[d]imidazol-5-yl)-2-methylthiazole-5-sulfonamide] | 100 to 1000
Cc1n[nH]cc1S(=O)(=O)Nc1cc2c(cc1Oc1cccc(OCc3ccccc3)c1)n(C)c(=O)n2C [Example 48, N-(6-(3-(benzyloxy)phenoxy)-1,3-dimethyl-2-oxo-2,3-dihydro-1H-benzo[d]imidazol-5-yl)-3-methyl-1H-pyrazole-4-sulfonamide] | 100 to 1000
Cc1nc(S(=O)(=O)Nc2cc3c(cc2Oc2cccc(OCc4ccccc4)c2)n(C)c(=O)n3C)c[nH]1 [Example 49, N-(6-(3-(benzyloxy)phenoxy)-1,3-dimethyl-2-oxo-2,3-dihydro-1H-benzo[d]imidazol-5-yl)-2-methyl-1H-imidazole-4-sulfonamide] | 100 to 1000
CCn1cnc(S(=O)(=O)Nc2cc3c(cc2Oc2cccc(OCc4ccccc4)c2)n(C)c(=O)n3C)c1 [Example 50, N-(6-(3-(benzyloxy)phenoxy)-1,3-dimethyl-2-oxo-2,3-dihydro-1H-benzo[d]imidazol-5-yl)-1-ethyl-1H-imidazole-4-sulfonamide] | 100 to 1000
Cn1c(=O)n(C)c2cc(Oc3cccc(OCc4ccccc4)c3)c(NS(=O)(=O)c3cn[nH]c3)cc21 [Example 51, N-(6-(3-(benzyloxy)phenoxy)-1,3-dimethyl-2-oxo-2,3-dihydro-1H-benzo[d]imidazol-5-yl)-1H-pyrazole-4-sulfonamide] | 100 to 1000
COc1ccccc1S(=O)(=O)Nc1cc2c(cc1Oc1cccc(OCc3ccccc3)c1)n(C)c(=O)n2C [Example 52, N-(6-(3-(benzyloxy)phenoxy)-1,3-dimethyl-2-oxo-2,3-dihydro-1H-benzo[d]imidazol-5-yl)-2-methoxybenzenesulfonamide] | 100 to 1000
COCCOc1cccc(Oc2cc3c(cc2NS(=O)(=O)c2cn(C)c(C)n2)n(C)c(=O)n3C)c1 [Example 53, N-(6-(3-(2-methoxyethoxy)phenoxy)-1,3-dimethyl-2-oxo-2,3-dihydro-1H-benzo[d]imidazol-5-yl)-1,2-dimethyl-1H-imidazole-4-sulfonamide] | 100 to 1000
Cc1nc(S(=O)(=O)Nc2cc3c(cc2Oc2cccc(OC(C)C)c2)n(C)c(=O)n3C)cn1C [Example 54, N-(6-(3-isopropoxyphenoxy)-1,3-dimethyl-2-oxo-2,3-dihydro-1H-benzo[d]imidazol-5-yl)-1,2-dimethyl-1H-imidazole-4-sulfonamide] | 100 to 1000
Cc1nc(S(=O)(=O)Nc2cc3c(cc2Oc2cccc(OCCCO)c2)n(C)c(=O)n3C)cn1C [Example 55, N-(6-(3-(3-hydroxypropoxy)phenoxy)-1,3-dimethyl-2-oxo-2,3-dihydro-1H-benzo[d]imidazol-5-yl)-1,2-dimethyl-1H-imidazole-4-sulfonamide] | 100 to 1000
Cc1nc(S(=O)(=O)Nc2cc3c(cc2Oc2cccc(OCC(=O)N(C)C)c2)n(C)c(=O)n3C)cn1C [Example 56, 2-(3-((6-((1,2-dimethyl-1H-imidazole)-4-sulfonamido)-1,3-dimethyl-2-oxo-2,3-dihydro-1H-benzo[d]imidazol-5-yl)oxy)phenoxy)-N,N-dimethylacetamide] | > 1000
CCCCOc1cccc(Oc2cc3c(cc2NS(=O)(=O)c2cn(C)c(C)n2)n(C)c(=O)n3C)c1 [Example 57, N-(6-(3-butoxyphenoxy)-1,3-dimethyl-2-oxo-2,3-dihydro-1H-benzo[d]imidazol-5-yl)-1,2-dimethyl-1H-imidazole-4-sulfonamide] | 100 to 1000
Cc1nc(S(=O)(=O)Nc2cc3c(cc2Oc2cccc(OCC4CC4)c2)n(C)c(=O)n3C)cn1C [Example 58, N-(6-(3-(cyclopropylmethoxy)phenoxy)-1,3-dimethyl-2-oxo-2,3-dihydro-1H-benzo[d]imidazol-5-yl)-1,2-dimethyl-1H-imidazole-4-sulfonamide] | 10 to 100
CC(C)COc1cccc(Oc2cc3c(cc2NS(=O)(=O)C2CC2)n(C)c(=O)n3C)c1 [Example 59, N-(6-(3-isobutoxyphenoxy)-1,3-dimethyl-2-oxo-2,3-dihydro-1H-benzo[d]imidazol-5-yl)cyclopropanesulfonamide] | 100 to 1000
CC(C)COc1cccc(Oc2cc3c(cc2NS(=O)(=O)c2cnn(C)c2)n(C)c(=O)n3C)c1 [Example 60, N-(6-(3-isobutoxyphenoxy)-1,3-dimethyl-2-oxo-2,3-dihydro-1H-benzo[d]imidazol-5-yl)-1-methyl-1H-pyrazole-4-sulfonamide] | 10 to 100
CCCOc1cccc(Oc2cc3c(cc2NS(=O)(=O)c2cn(C)c(C)n2)n(C)c(=O)n3C)c1 [Example 61, N-(1,3-dimethyl-2-oxo-6-(3-propoxyphenoxy)-2,3-dihydro-1H-benzo[d]imidazol-5-yl)-1,2-dimethyl-1H-imidazole-4-sulfonamide] | 10 to 100
CCC(C)COc1cccc(Oc2cc3c(cc2NS(=O)(=O)c2cn(C)c(C)n2)n(C)c(=O)n3C)c1 (stereo not shown) [Example 62, N-(1,3-dimethyl-6-(3-(2-methylbutoxy)phenoxy)-2-oxo-2,3-dihydro-1H-benzo[d]imidazol-5-yl)-1,2-dimethyl-1H-imidazole-4-sulfonamide] | 100 to 1000
COc1cccc(Oc2cc3c(cc2NS(=O)(=O)c2cn(C)cn2)n(C)c(=O)n3C)c1 [Example 63, N-(6-(3-methoxyphenoxy)-1,3-dimethyl-2-oxo-2,3-dihydro-1H-benzo[d]imidazol-5-yl)-1-methyl-1H-imidazole-4-sulfonamide] | 100 to 1000
Cn1cnc(S(=O)(=O)Nc2cc3c(cc2Oc2cccc(OCC4CCOC4)c2)n(C)c(=O)n3C)c1 (stereo not shown) [Example 64, N-(1,3-dimethyl-2-oxo-6-(3-((tetrahydrofuran-3-yl)methoxy)phenoxy)-2,3-dihydro-1H-benzo[d]imidazol-5-yl)-1-methyl-1H-imidazole-4-sulfonamide] | 100 to 1000
Cn1cnc(S(=O)(=O)Nc2cc3c(cc2Oc2cccc(OCC4CCOCC4)c2)n(C)c(=O)n3C)c1 [Example 65, N-(1,3-dimethyl-2-oxo-6-(3-((tetrahydro-2H-pyran-4-yl)methoxy)phenoxy)-2,3-dihydro-1H-benzo[d]imidazol-5-yl)-1-methyl-1H-imidazole-4-sulfonamide] | 100 to 1000
COc1cc(OCC(C)C)cc(Oc2cc3c(cc2NS(=O)(=O)c2cn(C)c(C)n2)n(C)c(=O)n3C)c1 [Example 66, N-(6-(3-isobutoxy-5-methoxyphenoxy)-1,3-dimethyl-2-oxo-2,3-dihydro-1H-benzo[d]imidazol-5-yl)-1,2-dimethyl-1H-imidazole-4-sulfonamide] | 10 to 100
Cc1nc(S(=O)(=O)Nc2cc3c(cc2Oc2cccc(OCC(F)(F)F)c2)n(C)c(=O)n3C)cn1C [Example 67, N-(1,3-dimethyl-2-oxo-6-(3-(2,2,2-trifluoroethoxy)phenoxy)-2,3-dihydro-1H-benzo[d]imidazol-5-yl)-1,2-dimethyl-1H-imidazole-4-sulfonamide] | 10 to 100
COCCCOc1cccc(Oc2cc3c(cc2NS(=O)(=O)c2cn(C)cn2)n(C)c(=O)n3C)c1 [Example 68, N-(6-(3-(3-methoxypropoxy)phenoxy)-1,3-dimethyl-2-oxo-2,3-dihydro-1H-benzo[d]imidazol-5-yl)-1-methyl-1H-imidazole-4-sulfonamide] | 100 to 1000
COc1cc(OCC(C)C)cc(Oc2cc3c(cc2NS(=O)(=O)C2CC2)n(C)c(=O)n3C)c1 [Example 69, N-(6-(3-isobutoxy-5-methoxyphenoxy)-1,3-dimethyl-2-oxo-2,3-dihydro-1H-benzo[d]imidazol-5-yl)cyclopropanesulfonamide] | 10 to 100
C=C(C)COc1cccc(Oc2cc3c(cc2NS(=O)(=O)c2cn(C)cn2)n(C)c(=O)n3C)c1 [Example 70, N-(1,3-dimethyl-6-(3-((2-methylallyl)oxy)phenoxy)-2-oxo-2,3-dihydro-H-benzo[d]imidazol-5-yl)-1-methyl-1H-imidazole-4-sulfonamide] | 10 to 100
Cn1cnc(S(=O)(=O)Nc2cc3c(cc2Oc2cccc(OCC(F)(F)F)c2)n(C)c(=O)n3C)c1 [Example 71, N-(1,3-dimethyl-2-oxo-6-(3-(2,2,2-trifluoroethoxy)phenoxy)-2,3-dihydro-1H-benzo[d]imidazol-5-yl)-1-methyl-1H-imidazole-4-sulfonamide] | 10 to 100
Cn1cc(S(=O)(=O)Nc2cc3c(cc2Oc2cccc(OCC(F)(F)F)c2)n(C)c(=O)n3C)cn1 [Example 72, N-(1,3-dimethyl-2-oxo-6-(3-(2,2,2-trifluoroethoxy)phenoxy)-2,3-dihydro-1H-benzo[d]imidazol-5-yl)-1-methyl-1H-pyrazole-4-sulfonamide] | 10 to 100
Cn1cc(S(=O)(=O)Nc2cc3c(cc2Oc2cccc(OC(F)(F)F)c2)n(C)c(=O)n3C)cn1 [Example 73, N-(1,3-dimethyl-2-oxo-6-(3-(trifluoromethoxy)phenoxy)-2,3-dihydro-1H-benzo[d]imidazol-5-yl)-1-methyl-1H-pyrazole-4-sulfonamide] | > 1000
C=CCOc1cccc(Oc2cc3c(cc2NS(=O)(=O)c2cn(C)cn2)n(C)c(=O)n3C)c1 [Example 74, N-(6-(3-(allyloxy)phenoxy)-1,3-dimethyl-2-oxo-2,3-dihydro-1H-benzo[d]imidazol-5-yl)-1-methyl-1H-imidazole-4-sulfonamide] | 100 to 1000

Reference: patent US20160060260A1, “BROMODOMAIN INHIBITORS FOR TREATING DISEASE” (Board of Regents, The University of Texas System, priority 2014, published 2016)
